According to ChEMBL document CHEMBL1125852, “Synthesis of 4-Amino-1-(-D-ribofuranosyl)pyrrolo[2,3-d]pyridazine; an entry into a novel series of adenosine analogs” (1991):
Activity calls are given as the source filed them. No cut-off for these calls is given here.

Columns and labels:
Human betaherpesvirus 5 [1] = assay: Compound was tested for complete inhibition of growth rate against human cytomegalo virus; type: functional
Human betaherpesvirus 5 [2] = assay: Compound was tested for cytotoxicity against human cytomegalo virus at 100 uM; NA - no activity; type: functional, organism-based

Compound: Nc1nncc2c1ccn2C1O[C@H](CO)[C@@H](O)[C@H]1O (some centres not stated)
- Inhibition (Human betaherpesvirus 5 [1]): 0.043 µM
- Activity (Human betaherpesvirus 5 [2]): inactive
